Converted amounts (≈) assume the structure as drawn.
Key:
Type in all cases: in vivo
[1] = tested on: fruit tree spider mite (Panonychus ulmi); experiment: Panonychus ulmi test (sprayed plum cuttings); conditions: single active substance
Method: (§1) Solvent: 7 parts by weight of dimethylformamide
(§2) Emulsifier: 2 parts by weight of alkylaryl polyglycol ether
(§3) To prepare a suitable preparation of active substance, 1 part by weight of active substance is mixed with the stated amounts of solvent and emulsifier, and the concentrate is diluted with water to the desired concentrations.
Plum cuttings (Prunus domestica) which are infected with a mixed population of the fruit tree spider mite (Panonychus ulmi) are sprayed with the active substance preparation at the desired concentration.
(§4) After the desired period of time, the destruction is determined in %. In this context, 100% means that all spider mites have been destroyed; 0% means that no spider mites have been destroyed.

[2] = tested on: common spider mite (Tetranychus urticae); experiment: Tetranychus urticae test (OP-resistant; sprayed cucumbers); conditions: single active substance
Method: Tetranychus urticae Test (OP-Resistant)
as §1, §2, §3
Cucumbers (Cucumis sativus) which are severely infected with the common spider mite (Tetranychus urticae) are sprayed with the active substance preparation at the desired concentration.
as §4

[3] = tested on: citrus spider mite (Panonychus citri); experiment: Panonychus citri test (sprayed citrus plants); conditions: single active substance; for LC50: Panonychus citri, in Citrus x limon, 24 h, after 1 d, read-out: LC 50 in mg/l after 1d; for LC 50 in mg/l after 1d: Citrus limon
Method: as §1, §2, §3
Citrus plants (Citrus limon) which are infected with a mixed population of the citrus spider mite (Panonychus citri) are sprayed with the active substance preparation at the desired concentration.
as §4

Molecule | Destruction in % after 2d ([1]; 0.8 ppm, plum cuttings) | Destruction in % after 6d ([2]; 0.16 ppm, cucumbers) | LC50 [3] | LC 50 in mg/l after 1d [3] | Destruction in % after 2d ([1]; 4 ppm) | Destruction in % after 6d ([2]; 0.032 ppm) | Destruction in % after 2d ([1]; 0.16 ppm)
COc1ccc(-c2ccccc2)cc1NNC(=O)OC(C)C [Bifenazate (II), bifenazate] | 10% | 15% | – | – | – | – | –
CC(C)(C)c1ccc(CCOc2ncnc3ccccc23)cc1 [Fenazaquin (V), fenazaquin] | 0% | 0% | 10.2 mg/L (≈ 33.3 µM) | – | – | – | –
CC(C)(C)c1ccc(CSc2cnn(C(C)(C)C)c(=O)c2Cl)cc1 [Pyridaben (IV), pyridaben] | – | – | – | 31.41 mg/L (≈ 86.1 µM) | – | – | –
CCC(C)(C)C(=O)OC1=C(c2ccc(Cl)cc2Cl)C(=O)OC12CCCCC2 [Spirodiclofen (I), Spirodiclofen] | 5% | 25% | 12.3 mg/L (≈ 29.8 µM) | – | 15% | 15% | –
abamectin [Abamectin (VI)] | – | – | – | 1.0054 mg/L | – | – | 0%

Reference: US8486995B2, “Acaricidal active substance combinations” (priority 2007, dated 2013)
